Results taken from patent publication US11198713B2, “Agents modulating beta-catenin functions and methods thereof” (FOG PHARMACEUTICALS, INC., priority 2017, dated 2021).
Like-named read-outs stand apart in the source and are kept apart here.

Columns and labels:
[1] = biological target: T1, biotinylated beta-catenin (Homo sapiens, UniProt P35222); experiment: Surface Plasmon Resonance (Biacore); assay type: binding
T1 sequence (P35222 1-781): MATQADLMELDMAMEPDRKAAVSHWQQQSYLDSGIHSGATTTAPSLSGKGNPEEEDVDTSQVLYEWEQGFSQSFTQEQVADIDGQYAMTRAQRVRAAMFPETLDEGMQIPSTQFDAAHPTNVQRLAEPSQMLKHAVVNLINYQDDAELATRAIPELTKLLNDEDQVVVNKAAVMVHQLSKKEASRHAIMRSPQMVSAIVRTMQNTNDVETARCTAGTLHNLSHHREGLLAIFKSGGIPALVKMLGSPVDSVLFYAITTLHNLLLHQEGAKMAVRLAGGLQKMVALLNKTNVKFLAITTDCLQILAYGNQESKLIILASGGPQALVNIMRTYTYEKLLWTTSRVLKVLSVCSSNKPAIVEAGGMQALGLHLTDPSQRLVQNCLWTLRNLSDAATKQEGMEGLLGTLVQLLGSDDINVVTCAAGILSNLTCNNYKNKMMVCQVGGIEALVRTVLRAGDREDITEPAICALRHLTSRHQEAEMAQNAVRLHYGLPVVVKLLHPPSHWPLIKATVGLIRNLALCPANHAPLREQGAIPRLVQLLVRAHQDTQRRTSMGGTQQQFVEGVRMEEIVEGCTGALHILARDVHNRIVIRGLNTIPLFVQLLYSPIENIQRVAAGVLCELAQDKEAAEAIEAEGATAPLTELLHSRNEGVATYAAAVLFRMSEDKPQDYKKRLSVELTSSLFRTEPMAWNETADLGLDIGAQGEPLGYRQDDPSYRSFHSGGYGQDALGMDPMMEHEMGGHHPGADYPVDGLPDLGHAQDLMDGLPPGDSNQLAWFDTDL
Experimental: Additionally or alternatively, binding to beta-catenin may be measured by Surface Plasmon Resonance. In an exemplary assay, approximately 6 nmol dried peptide diluted in buffer (50 mM Tris pH 8.0, 300 mM NaCl, 2% glycerol, 0.5 mM TCEP, 0.5 mM EDTA, 0.005% Tween-20, 1 mg/mL CM Dextran, 0.02% w/v sodium azide) was assayed on a Biacore X100 using the Biacore Biotin CAPture Kit (GE Healthcare) and biotinylated beta-catenin. Results were analyzed using the Biacore X100 Evaluation Software. […] FPO217c (Isomer 2) bound to the armadillo domain of β-catenin with a Kd of 2 nM.

[2] = biological target: T2, full-length beta-catenin (Axin site) (Homo sapiens, UniProt P35222); experiment: Competition fluorescence polarization assay (Axin site probe); assay type: binding
T2 construct: 15 nM full-length beta-catenin, 20 nM FITC labeled peptide in buffer
T2 sequence (P35222 1-781): T1 sequence (P35222 1-781)
How it was run: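 Competition FP: 15 nM full-length β-catenin pre-incubated 5 min with 20 nM FITC-labelled stapled Axin-site peptide, then titrated peptide added (3-fold series from 5 μM) for 15 min in the dark. Buffer 50 mM Tris pH 8.0, 250 mM NaCl, 2% glycerol, 0.5 mM EDTA; duplicate reads.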

[3] = competition fluorescence polarization, Table 2, read-out: in vitro FP EC50
[4] = Biacore, biotinylated beta-catenin, read-out: Kd
[5] = competition with FITC labeled Axin-site probe, 15 nM full-length beta-catenin, read-out: FP EC50

| Kd ([1]; Table 2, read-out: Kd by SPR) | EC50 [2, 3] | Kd [1, 4] | EC50 [2, 5] | Structure (SMILES) |
| --- | --- | --- | --- | --- |
| 22 nM | < 100 nM |  |  | CC[C@H](C)[C@@H]1NC(=O)C2(NC(=O)[C@H](CCC(N)=O)NC(=O)[C@@H]3CCCN3C(C)=O)CN(C2)C(=O)OCC=CCCCC[C@](C)(C(=O)N[C@@H](Cc2c[nH]cn2)C(=O)N[C@H](C(=O)N[C@@H](CCCNC(=N)N)C(=O)N[C@@H](CCCNC(=N)N)C(=O)N[C@H](C(=O)N[C@@H](Cc2c[nH]c3ccccc23)C(=O)N[C@@H](CCCNC(=N)N)C(N)=O)C(C)C)C(C)C)NC(=O)[C@H](CC(=O)O)NC(=O)[C@H](CC(C)C)NC1=O (single isomer, unassigned) [FP0725c, Ac-P-Q-MA-I-L-D-R6-H-V-R-R-V-W-R-NH2] |
| 34 nM | 100 to 500 nM |  |  | CC[C@H](C)[C@@H]1NC(=O)[C@@]2(NC(=O)[C@H](CCC(N)=O)NC(=O)[C@@H]3CCCN3C(C)=O)CCN(CC=CCCCC[C@](C)(C(=O)N[C@@H](Cc3c[nH]cn3)C(=O)N[C@H](C(=O)N[C@@H](CCCNC(=N)N)C(=O)N[C@@H](CCCNC(=N)N)C(=O)N[C@H](C(=O)N[C@@H](Cc3c[nH]c4ccccc34)C(=O)N[C@@H](CCCNC(=N)N)C(N)=O)C(C)C)C(C)C)NC(=O)[C@H](CC(=O)O)NC(=O)[C@H](CC(C)C)NC1=O)C2 (single isomer, unassigned) [FP0745a, Ac-P-Q-MC-I-L-D-R6-H-V-R-R-V-W-R-NH2] |
| 7 nM | < 100 nM |  |  | CC[C@H](C)[C@@H]1NC(=O)[C@](C)(NC(=O)[C@H](CCC(N)=O)NC(=O)[C@@H]2CCCN2C(C)=O)CCCC=CCOC(=O)N2CC[C@](C(=O)N[C@@H](Cc3c[nH]cn3)C(=O)N[C@H](C(=O)N[C@@H](CCCNC(=N)N)C(=O)N[C@@H](CCCNC(=N)N)C(=O)N[C@H](C(=O)N[C@@H](Cc3c[nH]c4ccccc34)C(=O)N[C@@H](CCCNC(=N)N)C(N)=O)C(C)C)C(C)C)(C2)NC(=O)[C@H](CC(=O)O)NC(=O)[C@H](CC(C)C)NC1=O (single isomer, unassigned) [FP0766c, Ac-P-Q-R5-I-L-D-MC-H-V-R-R-V-W-R-NH2] |
|  |  | ~22 nM |  | CC[C@H](C)[C@@H]1NC(=O)C2(NC(=O)[C@H](CCC(N)=O)NC(=O)[C@@H]3CCCN3C(C)=O)CN(C2)C(=O)OCC=CCCCC[C@](C)(C(=O)N[C@@H](Cc2c[nH]cn2)C(=O)N[C@H](C(=O)N[C@@H](CCCNC(=N)N)C(=O)N[C@@H](CCCNC(=N)N)C(=O)N[C@H](C(=O)N[C@@H](Cc2c[nH]c3ccccc23)C(=O)N[C@@H](CCCNC(=N)N)C(N)=O)C(C)C)C(C)C)NC(=O)[C@H](CC(=O)O)NC(=O)[C@H](CC(C)C)NC1=O (single isomer, unassigned) [FP-0725c, Ac-P-Q-Az-I-L-D-R6-H-V-R-R-V-W-R-NH2] |
|  |  | ~13 nM |  | CC[C@H](C)[C@@H]1NC(=O)[C@](C)(NC(=O)[C@H](CCC(N)=O)NC(=O)[C@@H]2CCCN2C(C)=O)CCC=CCOC(=O)N2CC[C@](C(=O)N[C@@H](Cc3c[nH]cn3)C(=O)N[C@H](C(=O)N[C@@H](CCCNC(=N)N)C(=O)N[C@@H](CCCNC(=N)N)C(=O)N[C@H](C(=O)N[C@@H](Cc3c[nH]c4ccccc34)C(=O)N[C@@H](CCCNC(=N)N)C(N)=O)C(C)C)C(C)C)(C2)NC(=O)[C@H](CC(=O)O)NC(=O)[C@H](CC(C)C)NC1=O (single isomer, unassigned) [FP-0765c, Ac-P-Q-R4-I-L-D-PR-H-V-R-R-V-W-R-NH2] |
|  |  | ~7 nM |  | CC[C@H](C)[C@@H]1NC(=O)[C@](C)(NC(=O)[C@H](CCC(N)=O)NC(=O)[C@@H]2CCCN2C(C)=O)CCCC=CCOC(=O)N2CC[C@](C(=O)N[C@@H](Cc3c[nH]cn3)C(=O)N[C@H](C(=O)N[C@@H](CCCNC(=N)N)C(=O)N[C@@H](CCCNC(=N)N)C(=O)N[C@H](C(=O)N[C@@H](Cc3c[nH]c4ccccc34)C(=O)N[C@@H](CCCNC(=N)N)C(N)=O)C(C)C)C(C)C)(C2)NC(=O)[C@H](CC(=O)O)NC(=O)[C@H](CC(C)C)NC1=O (single isomer, unassigned) [FP-0766c, Ac-P-Q-R5-I-L-D-PR-H-V-R-R-V-W-R-NH2] |
| 3 nM | 100 to 500 nM |  |  | CC[C@H](C)[C@@H]1NC(=O)[C@H](Cc2c[nH]cn2)NC(=O)[C@H](C)NC(=O)[C@H](CC(=O)O)NC(=O)[C@H](CC(C)C)NC(=O)[C@H]([C@@H](C)CC)NC(=O)[C@](C)(NC(=O)[C@H](C)NC(C)=O)CCCCCCC=CCOC(=O)N(C)C[C@@](C)(C(=O)N[C@@H](CCCNC(=N)N)C(=O)N[C@H](C(=O)N[C@@H](Cc2c[nH]c3ccccc23)C(N)=O)C(C)C)NC1=O [FP0338c, Ac-A-R8-I-L-D-A-H-I-MD-R-V-W-NH2] |

More lines, now with the values behind:

| Structure (SMILES) | Kd ([1]; Table 2, read-out: Kd by SPR) | EC50 [2, 3] | Kd [1, 4] | EC50 [2, 5] |
| --- | --- | --- | --- | --- |
| CC[C@H](C)[C@@H]1NC(=O)[C@@](C)(NC(=O)[C@H](CCC(N)=O)NC(=O)[C@@H]2CCCN2C(C)=O)CCCCCC=CCN2CC(C(=O)N[C@@H](Cc3c[nH]cn3)C(=O)N[C@H](C(=O)N[C@@H](CCCNC(=N)N)C(=O)N[C@@H](CCCNC(=N)N)C(=O)N[C@H](C(=O)N[C@@H](Cc3c[nH]c4ccccc34)C(=O)N[C@@H](CCCNC(=N)N)C(N)=O)C(C)C)C(C)C)(C2)NC(=O)[C@H](CC(=O)O)NC(=O)[C@H](CC(C)C)NC1=O (single isomer, unassigned) [FP0738a, Ac-P-Q-S7-I-L-D-MA-H-V-R-R-V-W-R-NH2] | 43 nM | 100 to 500 nM |  |  |
| CC[C@H](C)[C@@H]1NC(=O)[C@](C)(NC(=O)[C@H](CCC(N)=O)NC(=O)[C@@H]2CCCN2C(C)=O)CCC=CCOC(=O)N2CC[C@](C(=O)N[C@@H](Cc3c[nH]cn3)C(=O)N[C@H](C(=O)N[C@@H](CCCNC(=N)N)C(=O)N[C@@H](CCCNC(=N)N)C(=O)N[C@H](C(=O)N[C@@H](Cc3c[nH]c4ccccc34)C(=O)N[C@@H](CCCNC(=N)N)C(N)=O)C(C)C)C(C)C)(C2)NC(=O)[C@H](CC(=O)O)NC(=O)[C@H](CC(C)C)NC1=O (single isomer, unassigned) [FP0765c, Ac-P-Q-R4-I-L-D-MC-H-V-R-R-V-W-R-NH2] | 13 nM | < 100 nM |  |  |
| CC[C@H](C)[C@@H]1NC(=O)[C@@](C)(NC(=O)[C@H](CCC(N)=O)NC(=O)[C@@H]2CCCN2C(C)=O)CCCCCC=CCN2CC(C(=O)N[C@@H](Cc3c[nH]cn3)C(=O)N[C@H](C(=O)N[C@@H](CCCNC(=N)N)C(=O)N[C@@H](CCCNC(=N)N)C(=O)N[C@H](C(=O)N[C@@H](Cc3c[nH]c4ccccc34)C(=O)N[C@@H](CCCNC(=N)N)C(N)=O)C(C)C)C(C)C)(C2)NC(=O)[C@H](CC(=O)O)NC(=O)[C@H](CC(C)C)NC1=O (single isomer, unassigned) [FP-0738a] |  |  | ~43 nM | 200 nM |
| CC[C@H](C)[C@@H]1NC(=O)[C@@]2(NC(=O)[C@H](CCC(N)=O)NC(=O)[C@@H]3CCCN3C(C)=O)CCN(CC=CCCCC[C@](C)(C(=O)N[C@@H](Cc3c[nH]cn3)C(=O)N[C@H](C(=O)N[C@@H](CCCNC(=N)N)C(=O)N[C@@H](CCCNC(=N)N)C(=O)N[C@H](C(=O)N[C@@H](Cc3c[nH]c4ccccc34)C(=O)N[C@@H](CCCNC(=N)N)C(N)=O)C(C)C)C(C)C)NC(=O)[C@H](CC(=O)O)NC(=O)[C@H](CC(C)C)NC1=O)C2 (single isomer, unassigned) [FP-0745a] |  |  | ~34 nM |  |
| CC[C@H](C)[C@@H]1NC(=O)[C@@](C)(NC(=O)[C@H](CCC(N)=O)NC(=O)[C@@H]2CCCN2C(C)=O)CCCC=CCCC[C@@](C)(C(=O)N[C@@H](Cc2c[nH]cn2)C(=O)N[C@H](C(=O)N[C@@H](CCCNC(=N)N)C(=O)N[C@@H](CCCNC(=N)N)C(=O)N[C@H](C(=O)N[C@@H](Cc2c[nH]c3ccccc23)C(=O)N[C@@H](CCCNC(=N)N)C(N)=O)C(C)C)C(C)C)NC(=O)[C@H](CC(=O)O)NC(=O)[C@H](CC(C)C)NC1=O (single isomer, unassigned) [FP-0787c] |  |  | ~14 nM |  |
| CC[C@H](C)[C@@H]1NC(=O)[C@](C)(NC(=O)[C@H](C)NC(=O)[C@@H]2CCCN2C(C)=O)CCCCCCC=CCOC(=O)N2CC[C@@](C(=O)N[C@@H](CCCNC(=N)N)C(=O)N[C@H](C(=O)N[C@@H](Cc3c[nH]c4ccccc34)C(N)=O)C(C)C)(C2)NC(=O)[C@H](C(C)C)NC(=O)[C@H](Cc2c[nH]cn2)NC(=O)[C@H](C)NC(=O)[C@H](CC(=O)O)NC(=O)[C@H](CC(C)C)NC1=O [FP0025c, Ac-P-A-R8-I-L-D-A-H-V-MB-R-V-W-NH2] |  | < 100 nM | 15 nM | < 100 nM |
